“And” between values parts separate entries of the source, which are not always exact repeats. Equal entries are not always repeated. Numbers after ± are expanded uncertainties.
Settings: Gas, Buoyancy - hydrostatic balance with magnetic suspension - two sinkers

[He] [helium]
mass density (273.16 K, 31577 kPa): 47.957 ± 0.033 kg/m3 and 47.9575 ± 0.033 kg/m3 | mass density (273.16 K, 31578 kPa): 47.9581 ± 0.033 kg/m3 and 47.9577 ± 0.033 kg/m3 | mass density (273.16 K, 31775 kPa): 48.2167 ± 0.033 kg/m3 | mass density (273.16 K, 31776 kPa): 48.2177 ± 0.033 kg/m3 | mass density (273.16 K, 31777 kPa): 48.2188 ± 0.033 kg/m3 | mass density (273.16 K, 31778 kPa): 48.22 ± 0.033 kg/m3 | mass density (273.16 K, 31779 kPa): 48.2215 ± 0.033 kg/m3 | mass density (273.16 K, 31780 kPa): 48.2235 ± 0.033 kg/m3 | mass density (273.16 K, 31865 kPa): 48.3344 ± 0.031 kg/m3 and 48.3352 ± 0.031 kg/m3 | mass density (273.16 K, 31866 kPa): 48.3358 ± 0.031 kg/m3 | mass density (273.16 K, 31867 kPa): 48.3368 ± 0.031 kg/m3 and 48.3375 ± 0.031 kg/m3 | mass density (273.16 K, 32210 kPa): 48.7873 ± 0.032 kg/m3 | mass density (273.16 K, 32211 kPa): 48.788 ± 0.032 kg/m3 | mass density (273.16 K, 32212 kPa): 48.7903 ± 0.032 kg/m3 and 48.7886 ± 0.032 kg/m3 | mass density (273.16 K, 32213 kPa): 48.7913 ± 0.032 kg/m3 | mass density (273.16 K, 37198 kPa): 55.185 ± 0.041 kg/m3 | mass density (273.16 K, 37199 kPa): 55.1865 ± 0.041 kg/m3 | mass density (273.16 K, 37200 kPa): 55.1874 ± 0.041 kg/m3 | mass density (273.16 K, 37201 kPa): 55.1885 ± 0.041 kg/m3 and 55.1895 ± 0.041 kg/m3 | mass density (273.16 K, 37514 kPa): 55.5816 ± 0.041 kg/m3 | mass density (273.16 K, 37515 kPa): 55.5829 ± 0.041 kg/m3 | mass density (273.16 K, 37517 kPa): 55.5843 ± 0.041 kg/m3 | mass density (273.16 K, 37518 kPa): 55.5858 ± 0.041 kg/m3 | mass density (273.16 K, 37520 kPa): 55.5878 ± 0.041 kg/m3 | mass density (273.16 K, 37531 kPa): 55.6035 ± 0.041 kg/m3 | mass density (273.16 K, 37536 kPa): 55.6095 ± 0.041 kg/m3 | mass density (273.16 K, 37537 kPa): 55.6109 ± 0.041 kg/m3 | mass density (273.16 K, 37539 kPa): 55.6125 ± 0.041 kg/m3 | mass density (273.16 K, 37540 kPa): 55.6136 ± 0.041 kg/m3 | mass density (273.16 K, 38114 kPa): 56.3321 ± 0.042 kg/m3 and 56.3327 ± 0.042 kg/m3 | mass density (273.16 K, 38115 kPa): 56.3338 ± 0.042 kg/m3 | mass density (273.16 K, 38116 kPa): 56.335 ± 0.042 kg/m3 and 56.3346 ± 0.042 kg/m3 | mass density (293.15 K, 980.1 kPa): 1.6025 ± 0.0026 kg/m3 | mass density (293.15 K, 980.2 kPa): 1.6025 ± 0.0026 kg/m3 and 1.6026 ± 0.0026 kg/m3 | mass density (293.15 K, 1731.6 kPa): 2.8204 ± 0.003 kg/m3 and 2.8205 ± 0.003 kg/m3 and 2.8207 ± 0.003 kg/m3 | mass density (293.15 K, 3908.9 kPa): 6.3007 ± 0.0033 kg/m3 [middle of 5 runs] | mass density (293.15 K, 4006.9 kPa): 6.4542 ± 0.0034 kg/m3 | mass density (293.15 K, 4007 kPa): 6.4541 ± 0.0034 kg/m3 and 6.4543 ± 0.0034 kg/m3 and 6.4542 ± 0.0034 kg/m3 | mass density (293.15 K, 7058 kPa): 11.2086 ± 0.0084 kg/m3 | mass density (293.15 K, 7058.1 kPa): 11.2089 ± 0.0084 kg/m3 and 11.2088 ± 0.0084 kg/m3 | mass density (293.15 K, 7058.2 kPa): 11.2089 ± 0.0084 kg/m3 | mass density (293.15 K, 7881.3 kPa): 12.4696 ± 0.0083 kg/m3 | mass density (293.15 K, 7881.6 kPa): 12.4701 ± 0.0083 kg/m3 | mass density (293.15 K, 7882.1 kPa): 12.4707 ± 0.0083 kg/m3 | mass density (293.15 K, 7882.6 kPa): 12.4715 ± 0.0083 kg/m3 | mass density (293.15 K, 7883 kPa): 12.4722 ± 0.0083 kg/m3 | mass density (293.15 K, 10034 kPa): 15.7199 ± 0.0091 kg/m3 | mass density (293.15 K, 10035 kPa): 15.7202 ± 0.0091 kg/m3 and 15.7205 ± 0.0091 kg/m3 | mass density (293.15 K, 11762 kPa): 18.2837 ± 0.0097 kg/m3 [middle of 5 runs] | mass density (293.15 K, 14018 kPa): 21.5714 ± 0.011 kg/m3 [middle of 8 runs] | mass density (293.15 K, 16004 kPa): 24.4152 ± 0.012 kg/m3 | mass density (293.15 K, 16005 kPa): 24.4156 ± 0.012 kg/m3 [middle of 4 runs] | mass density (293.15 K, 18018 kPa): 27.2473 ± 0.014 kg/m3 and 27.2468 ± 0.014 kg/m3 and 27.2464 ± 0.014 kg/m3 | mass density (293.15 K, 18019 kPa): 27.2479 ± 0.014 kg/m3 [middle of 5 runs] | mass density (293.15 K, 19905 kPa): 29.8586 ± 0.015 kg/m3 and 29.8588 ± 0.015 kg/m3 | mass density (293.15 K, 19906 kPa): 29.8595 ± 0.015 kg/m3 and 29.8599 ± 0.015 kg/m3 and 29.8592 ± 0.015 kg/m3 | mass density (293.15 K, 24474 kPa): 36.0124 ± 0.02 kg/m3 [middle of 4 runs] | mass density (293.15 K, 24475 kPa): 36.0141 ± 0.02 kg/m3 and 36.0137 ± 0.02 kg/m3 | mass density (293.15 K, 24476 kPa): 36.0152 ± 0.02 kg/m3 | mass density (293.15 K, 25777 kPa): 37.7285 ± 0.021 kg/m3 | mass density (293.15 K, 25778 kPa): 37.7301 ± 0.021 kg/m3 and 37.7298 ± 0.021 kg/m3 and 37.7293 ± 0.021 kg/m3 | mass density (293.15 K, 25779 kPa): 37.7309 ± 0.021 kg/m3 | mass density (293.15 K, 29507 kPa): 42.5361 ± 0.026 kg/m3 | mass density (293.15 K, 29508 kPa): 42.5375 ± 0.026 kg/m3 and 42.5373 ± 0.026 kg/m3 | mass density (293.15 K, 29509 kPa): 42.5383 ± 0.026 kg/m3 | mass density (293.15 K, 29510 kPa): 42.5393 ± 0.026 kg/m3 and 42.5394 ± 0.026 kg/m3 | mass density (293.15 K, 29511 kPa): 42.5405 ± 0.026 kg/m3 | mass density (293.15 K, 31846 kPa): 45.4829 ± 0.029 kg/m3 | mass density (293.15 K, 31847 kPa): 45.4837 ± 0.029 kg/m3 | mass density (293.15 K, 31848 kPa): 45.4862 ± 0.029 kg/m3 and 45.4845 ± 0.029 kg/m3 | mass density (293.15 K, 31850 kPa): 45.4879 ± 0.029 kg/m3 | mass density (293.15 K, 38003 kPa): 52.9909 ± 0.038 kg/m3 | mass density (293.15 K, 38004 kPa): 52.9921 ± 0.038 kg/m3 | mass density (293.15 K, 38005 kPa): 52.993 ± 0.038 kg/m3 | mass density (293.15 K, 38006 kPa): 52.9944 ± 0.038 kg/m3 | mass density (293.15 K, 38007 kPa): 52.9958 ± 0.038 kg/m3 | mass density (293.16 K, 10034 kPa): 15.7195 ± 0.0091 kg/m3 | mass density (323.15 K, 1780.1 kPa): 2.6324 ± 0.0029 kg/m3 and 2.6323 ± 0.0029 kg/m3 and 2.6322 ± 0.0029 kg/m3 | mass density (323.15 K, 1780.2 kPa): 2.6323 ± 0.0029 kg/m3 | mass density (323.15 K, 3959.1 kPa): 5.7989 ± 0.0032 kg/m3 and 5.7987 ± 0.0032 kg/m3 | mass density (323.15 K, 7974.3 kPa): 11.4834 ± 0.0077 kg/m3 and 11.4836 ± 0.0077 kg/m3 | mass density (323.15 K, 7974.4 kPa): 11.4837 ± 0.0077 kg/m3 and 11.4836 ± 0.0077 kg/m3 | mass density (323.15 K, 11648 kPa): 16.5228 ± 0.0089 kg/m3 [middle of 5 runs] | mass density (323.15 K, 15081 kPa): 21.0997 ± 0.01 kg/m3 | mass density (323.15 K, 15082 kPa): 21.1007 ± 0.01 kg/m3 and 21.1001 ± 0.01 kg/m3 and 21.1 ± 0.01 kg/m3 | mass density (323.15 K, 19305 kPa): 26.565 ± 0.013 kg/m3 and 26.5643 ± 0.013 kg/m3 and 26.5647 ± 0.013 kg/m3 | mass density (323.15 K, 19306 kPa): 26.5662 ± 0.013 kg/m3 and 26.5653 ± 0.013 kg/m3 | mass density (323.15 K, 25679 kPa): 34.4876 ± 0.019 kg/m3 and 34.4883 ± 0.019 kg/m3 | mass density (323.15 K, 25680 kPa): 34.4886 ± 0.019 kg/m3 and 34.489 ± 0.019 kg/m3 and 34.4895 ± 0.019 kg/m3 | mass density (323.15 K, 31795 kPa): 41.7513 ± 0.025 kg/m3 and 41.752 ± 0.025 kg/m3 | mass density (323.15 K, 31796 kPa): 41.7528 ± 0.025 kg/m3 | mass density (323.15 K, 31797 kPa): 41.7536 ± 0.025 kg/m3 and 41.7543 ± 0.025 kg/m3 | mass density (323.15 K, 37888 kPa): 48.6852 ± 0.033 kg/m3 | mass density (323.15 K, 37889 kPa): 48.6863 ± 0.033 kg/m3 | mass density (323.15 K, 37890 kPa): 48.6876 ± 0.033 kg/m3 | mass density (323.15 K, 37891 kPa): 48.6888 ± 0.033 kg/m3 | mass density (323.15 K, 37892 kPa): 48.6904 ± 0.033 kg/m3
